Assays:
[1] = tested on: phosphorylation of C-Nap1; assay: Phosphorylated C-Nap1 in cell assay; settings: for modulation of C-Nap1 phosphorylation: aphidicolin-synchronized U2OS cells, different concentrations
[2] = target: T1, Nek2 (Homo sapiens, UniProt P51955); type: biochemical
T1 sequence (P51955 1-445): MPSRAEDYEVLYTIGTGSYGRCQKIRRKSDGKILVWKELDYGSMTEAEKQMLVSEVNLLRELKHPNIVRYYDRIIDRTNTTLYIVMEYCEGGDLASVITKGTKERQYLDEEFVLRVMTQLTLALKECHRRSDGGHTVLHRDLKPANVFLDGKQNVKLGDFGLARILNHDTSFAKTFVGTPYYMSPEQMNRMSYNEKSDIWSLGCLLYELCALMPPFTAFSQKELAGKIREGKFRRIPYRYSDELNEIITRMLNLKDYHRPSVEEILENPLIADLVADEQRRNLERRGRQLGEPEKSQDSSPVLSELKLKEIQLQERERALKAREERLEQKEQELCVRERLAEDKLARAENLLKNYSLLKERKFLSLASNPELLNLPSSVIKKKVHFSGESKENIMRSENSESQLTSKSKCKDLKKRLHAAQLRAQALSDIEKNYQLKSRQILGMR

Row | SMILES | modulation of C-Nap1 phosphorylation [1] | also measured
1 | CC(Oc1cc(-n2cnc3cc(OC4CCN(C)CC4)ccc32)ccc1C(N)=O)c1ccccc1C(F)(F)F (racemic) [rac-3, reference compound] | did not show any significant modulation of C-Nap1 phosphorylation | –
2 | CC(Oc1cc(-c2cc(-c3ccc(CN4CCOCC4)s3)cnc2N)ccc1C(N)=O)c1ccccc1C(F)(F)F (stereo not shown) [17g] | – | increase of Nek2 IC50 compared with compound 17c [2]: more than 7 fold
3 | C[C@@H](Oc1cc(-c2cc(-c3cc(CN(C)C)cs3)cnc2N)ccc1C(N)=O)c1ccccc1C(F)(F)F [(R)-17j] | – | IC50 ([1]; Homo sapiens, U2OS, 3 h, read-out: IC50 for C-Nap1 phosphorylation inhibition): 2700 nM
4 | C[C@@H](/C=C\C(F)(F)F)Oc1cc(-c2cc(-c3cc(CN(C)C)cs3)cnc2N)ccc1C(N)=O [(S)-21, (S)-(Z)-4-(2-Amino-5-(4-((dimethylamino)methyl)thiophen-2-yl)pyridin-3-yl)-2-((5,5,5-trifluoropent-3-en-2-yl)oxy)benzamide] | significantly less suppression of C-Nap1 phosphorylation | –
